Assay results from ChEMBL document CHEMBL2346614, “Discovery of thienopyrimidine-based inhibitors of the human farnesyl pyrophosphate synthase--parallel synthesis of analogs via a trimethylsilyl ylidene intermediate” (Bioorg Med Chem, 2013).

Legend:
[1] = biological target: T1, Farnesyl pyrophosphate synthase (Homo sapiens) (UniProt P14324); assay: Inhibition of human recombinant N-terminal His6-tagged FPPS transfected in Escherichia coli BL21 (DE3) cells using GPP and [3H]-IPP as substrate at 10 uM incubated for 10 mins prior to substrate addition measured after 20 mins by liquid scintillation counting analysis; assay type: biochemical
T1 sequence (whole entry): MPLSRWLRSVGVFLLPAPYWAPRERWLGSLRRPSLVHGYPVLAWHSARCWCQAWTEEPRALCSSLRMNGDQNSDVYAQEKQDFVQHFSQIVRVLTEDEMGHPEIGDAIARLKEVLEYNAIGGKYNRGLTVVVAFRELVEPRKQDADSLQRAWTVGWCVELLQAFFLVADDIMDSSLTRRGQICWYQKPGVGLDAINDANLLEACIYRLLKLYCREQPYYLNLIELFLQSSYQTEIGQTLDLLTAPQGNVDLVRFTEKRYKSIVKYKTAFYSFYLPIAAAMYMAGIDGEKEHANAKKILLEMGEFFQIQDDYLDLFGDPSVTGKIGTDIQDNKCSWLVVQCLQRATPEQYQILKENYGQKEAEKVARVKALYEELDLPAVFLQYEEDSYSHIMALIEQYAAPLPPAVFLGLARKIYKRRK

[2] = biological target: T2, Farnesyl pyrophosphate synthase (Homo sapiens, UniProt P14324); assay: Inhibition of human recombinant N-terminal His6-tagged FPPS transfected in Escherichia coli BL21 (DE3) cells using GPP and [3H]-IPP as substrate incubated for 10 mins prior to substrate addition measured after 20 mins by liquid scintillation counting analysis
T2 sequence (P14324 whole entry): T1 sequence (whole entry)

[3] = biological target: T2, Farnesyl pyrophosphate synthase; assay: Inhibition of human FPPS

Row | inhibition [1] | SMILES | also measured
1 | 75% | O=P(O)(O)C(Nc1ncnc2sccc12)P(=O)(O)O | –
2 | 75% | O=P(O)(O)C(Nc1ncnc2sc(-c3ccccc3)cc12)P(=O)(O)O | –
3 | < 20% | O=P(O)(O)C(Nc1ncnc2scc(-c3ccccc3)c12)P(=O)(O)O | –
4 | – | O=P(O)(O)C(Nc1ncnc2sc(-c3ccc4ccccc4c3)cc12)P(=O)(O)O | IC50 [2]: 250 nM
5 | 75% | O=P(O)(O)C(Nc1nc(-c2ccccc2)nc2sccc12)P(=O)(O)O | –
6 | – | Cc1ccc(-c2cc3c(NC(P(=O)(O)O)P(=O)(O)O)ncnc3s2)cc1 | IC50 [2]: 390 nM
7 | – | CC(C)=CCC/C(C)=C/CC(C/C=C(\C)CCC=C(C)C)(P(=O)(O)O)P(=O)(O)O [DIGERANYL BISPHOSPHONATE] | IC50 [3]: > 10 µM
